A short description of this data set: Solubility in 0.2M K2CO3 solution (pH of a developer solution). The note with it: room temperature. It is filed as physicochemical.

The record followed here is patent US6890706B2, “Process for removing stain in a photographic material” (Ciba Specialty Chemicals Corporation, priority 1999, dated 2005).

With `CN(CC(=O)[O-])c1nc(Nc2ccc(/C=C/c3ccc(Nc4nc(Nc5cc(S(=O)(=O)[O-])ccc5S(=O)(=O)[O-])nc(N(C)CC(=O)[O-])n4)cc3S(=O)(=O)[O-])c(S(=O)(=O)[O-])c2)nc(Nc2cc(S(=O)(=O)[O-])ccc2S(=O)(=O)[O-])n1.[Na+].[Na+].[Na+].[Na+].[Na+].[Na+].[Na+].[Na+]` [H], the “Solubility of the active substance in K2CO3 0.2M solution” value (from here on “Solubility of the active substance”) was 32.0%.

Turning to `COc1nc(NCCS(=O)(=O)[O-])nc(Nc2ccc(/C=C/c3ccc(Nc4nc(OC)nc(N(CCO)CCO)n4)cc3S(=O)(=O)[O-])c(S(=O)(=O)[O-])c2)n1.[Na+].[Na+].[Na+]` [Comp-1, reference compound], the “Solubility of the active substance” value amounted to 3.4%.

In the case of `O=C([O-])CC(Nc1nc(Nc2ccc(/C=C/c3ccc(Nc4nc(Nc5cc(S(=O)(=O)[O-])ccc5S(=O)(=O)[O-])nc(NC(CC(=O)[O-])C(=O)[O-])n4)cc3S(=O)(=O)[O-])c(S(=O)(=O)[O-])c2)nc(Nc2cc(S(=O)(=O)[O-])ccc2S(=O)(=O)[O-])n1)C(=O)[O-].[Na+].[Na+].[Na+].[Na+].[Na+].[Na+].[Na+].[Na+].[Na+].[Na+]` (stereo not shown) [C], the “Solubility of the active substance” value was 39.0%.

Consider `O=C(O)CN(CC(=O)O)c1nc(Nc2ccc(/C=C/c3ccc(Nc4nc(Nc5cc(S(=O)(=O)O)ccc5S(=O)(=O)O)nc(N(CC(=O)O)CC(=O)O)n4)cc3S(=O)(=O)O)c(S(=O)(=O)O)c2)nc(Nc2cc(S(=O)(=O)O)ccc2S(=O)(=O)O)n1.[Na+].[Na+].[Na+].[Na+].[Na+].[Na+].[Na+].[Na+].[Na+].[Na+]` [G], for which the “Solubility of the active substance” value is listed as 32.0%.

As for `O=S(=O)([O-])c1ccc(Nc2nc(Nc3ccc(/C=C/c4ccc(Nc5nc(Nc6ccc(S(=O)(=O)[O-])cc6S(=O)(=O)[O-])nc(N6CCOCC6)n5)cc4S(=O)(=O)[O-])c(S(=O)(=O)[O-])c3)nc(N3CCOCC3)n2)c(S(=O)(=O)[O-])c1.[Na+].[Na+].[Na+].[Na+].[Na+].[Na+]` [Comp-3, reference compound], the “Solubility of the active substance” value worked out at 6.6%.

Consider `O=C([O-])CC(Nc1nc(Nc2ccccc2)nc(Nc2ccc(/C=C/c3ccc(Nc4nc(Nc5ccccc5)nc(NC(CC(=O)[O-])C(=O)[O-])n4)cc3S(=O)(=O)[O-])c(S(=O)(=O)[O-])c2)n1)C(=O)[O-].[Na+].[Na+].[Na+].[Na+].[Na+].[Na+]` (stereo not shown) [B], for which the “Solubility of the active substance” value was determined as 25.6%.

Regarding `O=C([O-])CN(CC(=O)[O-])c1nc(Nc2ccccc2)nc(Nc2ccc(/C=C/c3ccc(Nc4nc(Nc5ccccc5)nc(N(CC(=O)[O-])CC(=O)[O-])n4)cc3S(=O)(=O)[O-])c(S(=O)(=O)[O-])c2)n1.[Na+].[Na+].[Na+].[Na+].[Na+].[Na+]` [E], the “Solubility of the active substance” value is on record as 38.5%.
